Here are results for seven compounds from patent publication US9688691B2, “Macrocyclic quinazole derivatives and their use as MTKI” (Janssen Pharmaceutica NV, priority 2004, dated 2017).

One data set deals with Abl (h) (Homo sapiens, UniProt P00519). Description: Kinase profiling, glass-fiber filter technology: Abl. Format: biochemical. The settings on record: test concentration of 10^−6 M; read-out: Abl inhibition score. On the procedure: (§1) The in vitro inhibition of a panel of kinases was assessed using the glass-fiber filter technology as described by Davies, S. P. et al., Biochem J. (2000), 351; p. 95-105.
(§2) In the glass-fiber filter technology the activity of the kinase of interest is measured using an appropriate substrate that is incubated with the aforementioned kinase protein in the presence of (^33P) radiolabeled ATP. (^33P) Phosporylation of the substrate is subsequently measured as radioactivity bound on a glassfiber-filter.
(§3) All kinases are pre-diluted to a 10× working concentration prior to addition into the assay. The composition of the dilution buffer for each kinase is detailed below.
(§4) All substrates are dissolved and diluted to working stocks in de-ionised water.
(§5) In a final reaction volume of 25 μl, Abl (h) (5-10 mU) is incubated with 8 mM MOPS pH 7.0, 0.2 mM EDTA, 50 μM EAIYAAPFAKKK, 10 mM MgAcetate and [γ-^33P-ATP] (specific activity approx. 500 cpm/pmol, concentration as required). The reaction is initiated by the addition of the MgATP mix. After incubation for 40 minutes at room temperature, the reaction is stopped by the addition of 5 μl of a 3% phosphoric acid solution. 10 μl of the reaction is then spotted onto a P30 filtermat and washed three times for 5 minutes in 75 mM phosphoric acid and once in methanol prior to drying and scintillation counting.

The target in another data set is CDK6/cyclinD3 human (Homo sapiens, UniProt Q00534). Description: Kinase profiling, glass-fiber filter technology: CDK6/cyclinD3. Format: biochemical. As to conditions: test concentration of 10^−6 M; read-out: CDK6/cyclinD3 inhibition score. On the procedure: as §1, §2, §3, §4
as §5, with “CDK6/cyclinD3 human” for “Abl (h)”, “0.1 mg/ml histone H1,” for “50 μM EAIYAAPFAKKK,”

Another data set addresses CDK5/p35 human (Homo sapiens, UniProt Q00535). Description: Kinase profiling, glass-fiber filter technology: CDK5/p35. Format: biochemical. The settings on record: test concentration of 10^−6 M; read-out: CDK5/p35 inhibition score. How it is done: as §1, §2, §3, §4
as §5, with “CDK5/p35 human” for “Abl (h)”, “0.1 mg/ml histone H1,” for “50 μM EAIYAAPFAKKK,”

Chain of Abl (h) (P00519 whole entry): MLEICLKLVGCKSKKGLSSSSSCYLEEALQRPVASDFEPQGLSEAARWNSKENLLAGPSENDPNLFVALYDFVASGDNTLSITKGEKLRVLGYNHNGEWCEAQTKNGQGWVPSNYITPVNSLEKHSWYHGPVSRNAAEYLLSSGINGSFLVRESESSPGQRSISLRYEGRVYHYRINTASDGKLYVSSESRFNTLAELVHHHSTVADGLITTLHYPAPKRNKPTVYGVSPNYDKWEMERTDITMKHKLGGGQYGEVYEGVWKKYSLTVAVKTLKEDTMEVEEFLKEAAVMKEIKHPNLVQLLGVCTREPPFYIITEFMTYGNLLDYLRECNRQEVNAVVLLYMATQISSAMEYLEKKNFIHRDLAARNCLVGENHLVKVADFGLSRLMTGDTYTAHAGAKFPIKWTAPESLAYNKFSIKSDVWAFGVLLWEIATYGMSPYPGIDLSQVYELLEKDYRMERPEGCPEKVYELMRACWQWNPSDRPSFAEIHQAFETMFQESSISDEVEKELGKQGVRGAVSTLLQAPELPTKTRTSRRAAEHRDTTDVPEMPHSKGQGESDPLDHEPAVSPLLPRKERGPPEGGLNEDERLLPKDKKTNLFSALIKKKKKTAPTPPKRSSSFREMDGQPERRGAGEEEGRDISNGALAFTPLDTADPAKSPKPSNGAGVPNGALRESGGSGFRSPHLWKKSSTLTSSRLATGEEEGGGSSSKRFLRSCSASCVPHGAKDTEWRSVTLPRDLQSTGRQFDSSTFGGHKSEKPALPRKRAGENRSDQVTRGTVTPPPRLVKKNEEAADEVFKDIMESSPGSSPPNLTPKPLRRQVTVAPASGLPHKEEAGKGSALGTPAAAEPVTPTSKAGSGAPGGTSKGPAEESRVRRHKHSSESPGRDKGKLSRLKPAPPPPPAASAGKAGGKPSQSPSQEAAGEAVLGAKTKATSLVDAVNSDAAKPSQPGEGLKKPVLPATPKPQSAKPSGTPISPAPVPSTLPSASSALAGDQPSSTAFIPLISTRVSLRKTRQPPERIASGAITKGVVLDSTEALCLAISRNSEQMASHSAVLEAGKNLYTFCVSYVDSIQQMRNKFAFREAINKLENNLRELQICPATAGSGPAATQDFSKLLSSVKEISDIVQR
Chain of CDK6/cyclinD3 human (Q00534 whole entry): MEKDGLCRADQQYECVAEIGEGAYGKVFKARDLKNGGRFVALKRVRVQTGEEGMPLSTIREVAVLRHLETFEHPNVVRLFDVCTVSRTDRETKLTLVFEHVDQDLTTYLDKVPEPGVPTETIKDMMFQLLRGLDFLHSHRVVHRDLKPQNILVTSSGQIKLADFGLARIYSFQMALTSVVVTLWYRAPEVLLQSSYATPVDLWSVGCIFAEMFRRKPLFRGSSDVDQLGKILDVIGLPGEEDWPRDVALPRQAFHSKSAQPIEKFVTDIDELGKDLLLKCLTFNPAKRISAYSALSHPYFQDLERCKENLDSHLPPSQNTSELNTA
Chain of CDK6/cyclinD3 human (P30281 whole entry partner): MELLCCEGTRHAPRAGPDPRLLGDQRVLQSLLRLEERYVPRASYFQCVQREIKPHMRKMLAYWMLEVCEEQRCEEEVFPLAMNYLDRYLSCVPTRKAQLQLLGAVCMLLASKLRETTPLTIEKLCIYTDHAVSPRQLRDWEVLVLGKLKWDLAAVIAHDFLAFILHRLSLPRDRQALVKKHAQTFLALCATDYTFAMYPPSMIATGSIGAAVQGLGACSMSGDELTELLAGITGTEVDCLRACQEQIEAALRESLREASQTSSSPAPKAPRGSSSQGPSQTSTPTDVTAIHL
Chain of CDK5/p35 human (Q00535 whole entry): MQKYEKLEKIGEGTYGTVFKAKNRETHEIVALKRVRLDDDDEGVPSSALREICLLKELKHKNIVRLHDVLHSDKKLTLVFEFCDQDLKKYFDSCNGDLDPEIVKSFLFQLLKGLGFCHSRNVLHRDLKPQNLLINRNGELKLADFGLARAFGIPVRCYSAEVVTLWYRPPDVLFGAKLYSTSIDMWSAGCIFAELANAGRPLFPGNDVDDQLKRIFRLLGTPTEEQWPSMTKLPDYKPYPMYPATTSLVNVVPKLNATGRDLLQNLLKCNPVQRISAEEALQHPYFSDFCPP
Chain of CDK5/p35 human (Q15078 whole entry partner): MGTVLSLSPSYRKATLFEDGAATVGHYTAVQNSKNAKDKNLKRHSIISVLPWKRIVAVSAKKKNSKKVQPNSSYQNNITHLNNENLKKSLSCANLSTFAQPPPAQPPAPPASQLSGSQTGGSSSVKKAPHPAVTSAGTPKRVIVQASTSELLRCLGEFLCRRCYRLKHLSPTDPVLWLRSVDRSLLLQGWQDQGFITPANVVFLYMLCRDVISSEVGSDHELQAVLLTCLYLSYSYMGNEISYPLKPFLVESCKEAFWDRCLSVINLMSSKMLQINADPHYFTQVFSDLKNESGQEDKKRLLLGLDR

Broadly, the melting point is the temperature, or range, at which the solid turns liquid. `CC(=O)NCCN1CCN(CCCOc2cc3ncnc4c3cc2OCCCNC(=O)[C@H](C)N(C)Cc2cc(F)c(Cl)cc2N4)CC1` [Compound 6] gave a melting point of 136 °C. Also, the inhibition at 1 µM at Abl (h) is over 80%.

Take `CN1CCCCCOc2cc3c(ncnc3cc2OCCCNCCS(C)(=O)=O)Nc2cc(Cl)c(F)cc2C1` [Compound 18]: the inhibition at 1 µM on Abl (h) is over 80%.

In the case of `CN1CCCCCOc2cc3c(ncnc3cc2OC[C@H](O)CNCCOCCO)Nc2cc(Cl)c(F)cc2C1` [Compound 17], the inhibition at 1 µM on Abl (h) is over 80%.

`CC(=O)NCCNCCCOc1cc2ncnc3c2cc1OCCCNC(=O)[C@H](C)N(C)Cc1cc(F)c(Cl)cc1N3` [Compound 4]: the melting point amounted to 112 °C.

For the compound `COc1cc2ncnc3c2cc1OCCCN(CCCN1CCOCC1)C(=O)[C@H](CC(C)C)NC(=O)Cc1ccc(Br)cc1N3` [Int. 25], on Abl (h), the inhibition at 1 µM was in the range of 10 to 30%.

For the compound `COCCOCCOc1cc2ncnc3c2cc1OCCCCCN(C)Cc1ccc(Br)cc1N3` [Int. 43], the inhibition at 1 µM at Abl (h) fell in the range of 60 to 80%; on CDK6/cyclinD3 human it was 10 to 30%.

`COc1cc2ncnc3c2cc1OCCCN(CCN1CCOCC1)C(=O)CNC(=O)Cc1ccc(Cl)cc1N3` [Compound 15]: the inhibition at 1 µM at Abl (h) is over 80%; on CDK5/p35 human it was 10 to 30%.
